Source: PubChem BioAssay (NCI)
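The concentration for 50% growth inhibition is given as GI50. The concentration for full growth arrest is given as TGI.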

What was measured:
Assay in all cases: DTP human tumour cell line panel, 384-well format
786-0 renal = system: 786-0 renal
A498 renal = system: A498 renal
A549 NSCLC = system: A549 NSCLC
ACHN renal = system: ACHN renal
BT-549 breast = system: BT-549 breast
CAKI-1 renal = system: CAKI-1 renal
COLO 205 colon = system: COLO 205 colon
DU-145 prostate = system: DU-145 prostate
EKVX NSCLC = system: EKVX NSCLC
HCT-116 colon = system: HCT-116 colon
HCT-15 colon = system: HCT-15 colon
HL-60(TB) leukemia = system: HL-60(TB) leukemia
HOP-62 NSCLC = system: HOP-62 NSCLC
HOP-92 NSCLC = system: HOP-92 NSCLC
HS 578T breast = system: HS 578T breast
HT29 colon = system: HT29 colon
IGROV1 ovarian = system: IGROV1 ovarian
K-562 leukemia = system: K-562 leukemia
KM12 colon = system: KM12 colon
M14 melanoma = system: M14 melanoma
MALME-3M melanoma = system: MALME-3M melanoma
MCF7 breast = system: MCF7 breast
MDA-MB-231 breast = system: MDA-MB-231 breast
MDA-MB-435 melanoma = system: MDA-MB-435 melanoma
MDA-MB-468 breast = system: MDA-MB-468 breast
MOLT-4 leukemia = system: MOLT-4 leukemia
NCI-H226 lung = system: NCI-H226 lung
NCI-H23 lung = system: NCI-H23 lung
NCI-H322M lung = system: NCI-H322M lung
NCI-H460 NSCLC = system: NCI-H460 NSCLC
NCI-H522 lung = system: NCI-H522 lung
OVCAR-3 ovarian = system: OVCAR-3 ovarian
OVCAR-4 ovarian = system: OVCAR-4 ovarian
OVCAR-5 ovarian = system: OVCAR-5 ovarian
OVCAR-8 ovarian = system: OVCAR-8 ovarian
PC-3 prostate = system: PC-3 prostate
RXF 393 renal = system: RXF 393 renal
SF-268 CNS = system: SF-268 CNS
SF-295 CNS = system: SF-295 CNS
SF-539 CNS = system: SF-539 CNS
SK-MEL-2 melanoma = system: SK-MEL-2 melanoma
SK-MEL-28 melanoma = system: SK-MEL-28 melanoma
SK-MEL-5 melanoma = system: SK-MEL-5 melanoma
SK-OV-3 ovarian = system: SK-OV-3 ovarian
SN12C renal = system: SN12C renal
SNB-19 CNS = system: SNB-19 CNS
SNB-75 CNS = system: SNB-75 CNS
SR leukemia = system: SR leukemia
SW-620 colon = system: SW-620 colon
T-47D breast = system: T-47D breast
TK-10 renal = system: TK-10 renal
U251 glioblastoma = system: U251 glioblastoma
UACC-257 melanoma = system: UACC-257 melanoma
UACC-62 melanoma = system: UACC-62 melanoma
UO-31 renal = system: UO-31 renal

COc1cc(F)c(F)c(Nc2ccc(I)cc2F)c1NS(=O)(=O)C1(CC(O)CO)CC1 (stereo not given)
GI50 ([…]-0 renal): 16.9 µM
TGI (786-0 renal): 31.7 µM
GI50 (A498 renal): 16.1 µM
TGI (A498 renal): 31 µM
GI50 (A549 NSCLC): 20 µM
TGI (A549 NSCLC): 55 µM
GI50 (ACHN renal): 17.1 µM
TGI (ACHN renal): 33.9 µM
GI50 (BT-549 breast): 14.1 µM
TGI (BT-549 breast): 27.2 µM
GI50 (CAKI-1 renal): 16 µM
TGI (CAKI-1 renal): 70.1 µM
GI50 (COLO 205 colon): 6.9 µM
TGI (COLO 205 colon): 24.1 µM
GI50 (DU-145 prostate): 18.1 µM
TGI (DU-145 prostate): 37.4 µM
GI50 (EKVX NSCLC): 19.5 µM
TGI (EKVX NSCLC): 44.4 µM
GI50 (HCT-116 colon): 14.7 µM
TGI (HCT-116 colon): 28.7 µM
GI50 (HCT-15 colon): 20.5 µM
TGI (HCT-15 colon): 48.9 µM
GI50 (HL-60(TB) leukemia): 6.51 µM
TGI (HL-60(TB) leukemia): 19.4 µM
GI50 (HOP-62 NSCLC): 14.2 µM
TGI (HOP-62 NSCLC): 29.1 µM
GI50 (HOP-92 NSCLC): 14.7 µM
TGI (HOP-92 NSCLC): 28.6 µM
GI50 (HS 578T breast): 14.8 µM
TGI (HS 578T breast): 28.1 µM
GI50 (HT29 colon): 10.4 µM
TGI (HT29 colon): 22.5 µM
GI50 (IGROV1 ovarian): 14.5 µM
TGI (IGROV1 ovarian): 31.5 µM
GI50 (K-562 leukemia): 14.3 µM
TGI (K-562 leukemia): 27.7 µM
GI50 (KM12 colon): 16.1 µM
TGI (KM12 colon): 30 µM
GI50 (M14 melanoma): 3.22 µM
TGI (M14 melanoma): 12.5 µM
GI50 (MALME-3M melanoma): 2.12 µM
TGI (MALME-3M melanoma): 6.94 µM
GI50 (MCF7 breast): 14.8 µM
TGI (MCF7 breast): 30.4 µM
GI50 (MDA-MB-231 breast): 13.9 µM
TGI (MDA-MB-231 breast): 36.3 µM
GI50 (MDA-MB-435 melanoma): 6.29 µM
TGI (MDA-MB-435 melanoma): 20.1 µM
GI50 (MDA-MB-468 breast): 13.8 µM
TGI (MDA-MB-468 breast): 32.6 µM
GI50 (MOLT-4 leukemia): 14.1 µM
TGI (MOLT-4 leukemia): 27.1 µM
GI50 (NCI-H226 lung): 14.6 µM
TGI (NCI-H226 lung): 31.9 µM
GI50 (NCI-H23 lung): 13.7 µM
TGI (NCI-H23 lung): 32.4 µM
GI50 (NCI-H322M lung): 26 µM
TGI (NCI-H322M lung): 59.3 µM
GI50 (NCI-H460 NSCLC): 16.2 µM
TGI (NCI-H460 NSCLC): 30.3 µM
GI50 (NCI-H522 lung): 15.4 µM
TGI (NCI-H522 lung): 29.4 µM
GI50 (OVCAR-3 ovarian): 13.9 µM
TGI (OVCAR-3 ovarian): 27.1 µM
GI50 (OVCAR-4 ovarian): 19.8 µM
TGI (OVCAR-4 ovarian): 70 µM
GI50 (OVCAR-5 ovarian): 18.2 µM
TGI (OVCAR-5 ovarian): 41 µM
GI50 (OVCAR-8 ovarian): 23.1 µM
TGI (OVCAR-8 ovarian): 58.3 µM
GI50 (PC-3 prostate): 16.3 µM
TGI (PC-3 prostate): 30.3 µM
GI50 (RXF 393 renal): 13.4 µM
TGI (RXF 393 renal): 26.9 µM
GI50 (SF-268 CNS): 19.7 µM
TGI (SF-268 CNS): 39.5 µM
GI50 (SF-295 CNS): 16.1 µM
TGI (SF-295 CNS): 30.4 µM
GI50 (SF-539 CNS): 15 µM
TGI (SF-539 CNS): 29.5 µM
GI50 (SK-MEL-2 melanoma): 12.9 µM
TGI (SK-MEL-2 melanoma): 25.6 µM
GI50 (SK-MEL-28 melanoma): 3.18 µM
TGI (SK-MEL-28 melanoma): 13.3 µM
GI50 (SK-MEL-5 melanoma): 7.62 µM
TGI (SK-MEL-5 melanoma): 20.5 µM
GI50 (SK-OV-3 ovarian): 21.8 µM
TGI (SK-OV-3 ovarian): 56.9 µM
GI50 (SN12C renal): 16.9 µM
TGI (SN12C renal): 35.3 µM
GI50 (SNB-19 CNS): 22.3 µM
TGI (SNB-19 CNS): 62.9 µM
GI50 (SNB-75 CNS): 15 µM
TGI (SNB-75 CNS): 31.4 µM
GI50 (SR leukemia): 14.5 µM
TGI (SR leukemia): 27.6 µM
GI50 (SW-620 colon): 15.6 µM
TGI (SW-620 colon): 41.3 µM
GI50 (T-47D breast): 21.2 µM
TGI (T-47D breast): 81.6 µM
GI50 (TK-10 renal): 20.6 µM
TGI (TK-10 renal): 53.8 µM
GI50 (U251 glioblastoma): 16.6 µM
TGI (U251 glioblastoma): 34.3 µM
GI50 (UACC-257 melanoma): 4.81 µM
TGI (UACC-257 melanoma): 18.1 µM
GI50 (UACC-62 melanoma): 3.82 µM
TGI (UACC-62 melanoma): 14 µM
GI50 (UO-31 renal): 13.4 µM
TGI (UO-31 renal): 32.2 µM
